A short description of assay [1]: Inhibition of bovine alpha chymotrypsin. Also noted: species or system Bos taurus.
Assay [2] deals with Cathepsin B (Bos taurus, UniProt P07688). Put plainly: Inhibition of bovine Cathepsin B.
A short description of assay [3]: Inhibition of porcine trypsin. On the set-up: species or system Sus scrofa.
For assay [4], the target named is Caspase-8 (Homo sapiens, UniProt Q14790). Put plainly: Inhibition of human recombinant caspase 8 expressed in Escherichia coli.

pIC50: −log10 of the molar value. Peptide text beside a SMILES is read from it. Some results are limits rather than exact numbers.

Usually pIC50 stands for the negative decadic logarithm of the IC50, by convention in mol/L.

Sequence of Caspase-8 (Q14790 217-374 limits assumed): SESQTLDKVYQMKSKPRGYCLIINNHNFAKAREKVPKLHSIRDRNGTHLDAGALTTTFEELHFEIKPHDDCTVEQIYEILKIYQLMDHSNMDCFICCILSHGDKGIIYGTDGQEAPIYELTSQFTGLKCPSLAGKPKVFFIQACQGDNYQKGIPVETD
Sequence of Caspase-8 (Q14790 385-479 limits assumed): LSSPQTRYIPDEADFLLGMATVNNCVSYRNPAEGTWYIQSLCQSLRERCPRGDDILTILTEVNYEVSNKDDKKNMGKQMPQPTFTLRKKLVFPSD

Regarding `CSCC[C@@H]1NC(=O)[C@H](C(C)C)NC(=O)[C@H](CC(C)C)NC(=O)CNC(=O)[C@@H]2CCCN2C(=O)[C@H](C(C)C)NC(=O)CNC(=O)[C@H](Cc2ccccc2)NC1=O` [PLANKTOCYCLIN] (cyclo(FGVPGLVM)), the negative-log IC50 (pIC50) was 5.00 in assay [1], below 3.30 in assay [2], 6.98 in assay [3] and 4.03 in assay [4].
